Source: the supplement of paper PMC10307832

Assays:
Test in all cases: relative viability (nuclei count vs DMSO), 5 days (fraction); higher = more cells survive
AZ628 + Bortezomib = compound: CC1=C(C=C(C=C1)NC(=O)C2=CC(=CC=C2)C(C)(C)C#N)NC3=CC4=C(C=C3)N=CN(C4=O)C [AZ628] + CC(C)C[C@H](NC(=O)[C@H](Cc1ccccc1)NC(=O)c1cnccn1)B(O)O [Bortezomib] (partner 0.002 µM)
Summary of the method: (§1)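 After 5 days of treatment, lung cancer cells in 1536-well plates were fixed and stained in a single step (final 0.05% Triton X-100, 1% formaldehyde, 1 ug/ml Hoechst) and their nuclei counted on 4× images. Treatment had been applied by pin tool the day after seeding as one drug alone or as a fixed anchor-drug dose with five library-drug doses (not always all listed) in √10 steps. Relative viability is the nuclei count of treated wells divided by that of vehicle wells, and values are medians of duplicate plates.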

QS11 + Navitoclax = compound: C1CC2=C(C1)C=C(C=C2)OC3=NC(=C4C(=N3)N(C=N4)CC5=CC=C(C=C5)C6=CC=CC=C6)N[C@@H](CC7=CC=CC=C7)CO [QS11] + CC1(C)CCC(c2ccc(Cl)cc2)=C(CN2CCN(c3ccc(C(=O)NS(=O)(=O)c4ccc(N[C@H](CCN5CCOCC5)CSc5ccccc5)c(S(=O)(=O)C(F)(F)F)c4)cc3)CC2)C1 [Navitoclax] (partner 0.5 µM)
Summary of the method: as §1

AZ628 + Linsitinib = compound: CC1=C(C=C(C=C1)NC(=O)C2=CC(=CC=C2)C(C)(C)C#N)NC3=CC4=C(C=C3)N=CN(C4=O)C [AZ628] + C[C@]1(O)C[C@@H](c2nc(-c3ccc4ccc(-c5ccccc5)nc4c3)c3c(N)nccn32)C1 [Linsitinib] (partner 1 µM)
Summary of the method: as §1

QS11 + Lapatinib = compound: C1CC2=C(C1)C=C(C=C2)OC3=NC(=C4C(=N3)N(C=N4)CC5=CC=C(C=C5)C6=CC=CC=C6)N[C@@H](CC7=CC=CC=C7)CO [QS11] + CS(=O)(=O)CCNCc1ccc(-c2ccc3ncnc(Nc4ccc(OCc5cccc(F)c5)c(Cl)c4)c3c2)o1 [Lapatinib] (partner 2 µM)
Summary of the method: as §1

Cell Line	relative viability (AZ628 + Bortezomib; first compound 0.08 µM)	relative viability (AZ628 + Bortezomib; first compound 0.253 µM)	relative viability (AZ628 + Bortezomib; first compound 0.8 µM)	relative viability (AZ628 + Bortezomib; first compound 2.53 µM)	relative viability (AZ628 + Bortezomib; first compound 8 µM)	relative viability (QS11 + Navitoclax; first compound 0.08 µM)	relative viability (QS11 + Navitoclax; first compound 0.253 µM)	relative viability (QS11 + Navitoclax; first compound 0.8 µM)	relative viability (QS11 + Navitoclax; first compound 2.53 µM)	relative viability (QS11 + Navitoclax; first compound 8 µM)	relative viability (AZ628 + Linsitinib; first compound 0.08 µM)	relative viability (AZ628 + Linsitinib; first compound 0.253 µM)	relative viability (AZ628 + Linsitinib; first compound 0.8 µM)	relative viability (AZ628 + Linsitinib; first compound 2.53 µM)	relative viability (AZ628 + Linsitinib; first compound 8 µM)	relative viability (QS11 + Lapatinib; first compound 0.08 µM)	relative viability (QS11 + Lapatinib; first compound 0.253 µM)	relative viability (QS11 + Lapatinib; first compound 0.8 µM)	relative viability (QS11 + Lapatinib; first compound 2.53 µM)	relative viability (QS11 + Lapatinib; first compound 8 µM)
201T	1.15	1.13	1.13	1.16	1.21	1.19	1.22	0.994	1.24	1.17	1.06	0.978	1.07	1	0.998	1.05	0.835	0.834	1.11	0.895
A549	–	–	–	–	–	1.2	1.37	1.21	1.06	0.808	0.571	0.542	0.469	0.606	0.39	1.04	1.14	0.621	0.886	0.764
A-427	0.884	0.993	1.1	0.94	0.452	0.992	1.02	–	1.02	1.01	1	0.898	0.839	0.857	0.496	0.881	1.08	–	1.12	1.07
ABC-1	0.307	0.314	0.364	0.344	0.315	–	–	–	–	–	0.857	0.81	0.854	0.719	0.799	1.18	1.44	1.16	1.16	1.47
BEN	0.882	0.653	0.666	0.813	0.616	0.0566	0.0797	0.0702	0.047	0.0634	1.1	0.864	0.793	0.903	0.772	0.555	0.89	0.864	0.781	1.19
CAL-12T	0.948	–	0.747	0.835	0.779	1.18	1.39	1.15	1.08	1.14	0.788	0.677	0.585	0.679	0.357	0.631	0.601	0.595	0.652	0.68
COR-L23	1.04	1.04	0.97	1.14	0.645	1.06	0.922	0.818	0.865	0.761	1.05	0.886	0.986	0.81	0.492	1.1	1.08	0.68	0.582	0.849
COR-L 105	1.01	0.978	0.885	0.867	0.544	0.77	0.618	0.788	0.733	0.83	0.933	0.897	0.934	0.857	0.651	0.38	0.363	0.343	0.412	0.396
Calu-6	1.03	0.943	0.61	0.792	0.244	1.08	0.844	0.872	1.01	0.901	1.05	0.859	0.401	0.673	0.153	1.11	1.07	0.969	1.31	1.12
ChaGo-K-1	0.987	–	0.85	1.11	1.15	–	1.01	1.42	1.66	1.21	–	–	–	–	–	–	–	–	–	–
EBC-1	0.636	0.605	0.642	0.685	0.472	0.387	0.352	0.374	0.363	0.393	0.87	0.843	0.999	0.773	0.885	0.233	0.198	0.194	0.211	0.207
EKVX	1.17	1.11	1.21	1.09	0.603	0.957	0.863	–	0.891	1.1	1.18	0.922	1	1.03	0.824	0.189	0.167	–	0.216	0.201
EMC-BAC-2	1.11	0.963	1	0.991	1.08	1.14	1.28	0.896	1.12	0.654	0.77	0.723	0.782	0.744	0.762	0.927	0.89	0.884	0.984	0.89
EPLC-272H	0.87	0.803	0.797	0.525	0.877	1.13	1.17	1.15	1.08	1.36	1.26	1.13	1.12	1.08	0.834	1.01	0.855	0.953	0.98	0.871
H3255	0.837	0.621	0.811	0.81	0.66	0.552	0.587	–	0.55	0.704	0.965	0.859	0.965	0.968	0.737	0.261	0.236	–	0.24	0.234
HARA	1.1	1.08	1.08	1.03	0.568	1.17	1.21	–	1.21	1.35	0.774	0.847	0.888	0.934	0.309	0.675	0.643	–	0.708	0.751

Cell Line	relative viability (AZ628 + Bortezomib; first compound 0.08 µM)	relative viability (AZ628 + Bortezomib; first compound 0.253 µM)	relative viability (AZ628 + Bortezomib; first compound 0.8 µM)	relative viability (AZ628 + Bortezomib; first compound 2.53 µM)	relative viability (AZ628 + Bortezomib; first compound 8 µM)	relative viability (QS11 + Navitoclax; first compound 0.08 µM)	relative viability (QS11 + Navitoclax; first compound 0.253 µM)	relative viability (QS11 + Navitoclax; first compound 0.8 µM)	relative viability (QS11 + Navitoclax; first compound 2.53 µM)	relative viability (QS11 + Navitoclax; first compound 8 µM)	relative viability (AZ628 + Linsitinib; first compound 0.08 µM)	relative viability (AZ628 + Linsitinib; first compound 0.253 µM)	relative viability (AZ628 + Linsitinib; first compound 0.8 µM)	relative viability (AZ628 + Linsitinib; first compound 2.53 µM)	relative viability (AZ628 + Linsitinib; first compound 8 µM)	relative viability (QS11 + Lapatinib; first compound 0.08 µM)	relative viability (QS11 + Lapatinib; first compound 0.253 µM)	relative viability (QS11 + Lapatinib; first compound 0.8 µM)	relative viability (QS11 + Lapatinib; first compound 2.53 µM)	relative viability (QS11 + Lapatinib; first compound 8 µM)
HCC-15	1.06	0.951	0.873	0.866	0.661	0.728	0.795	–	0.877	0.782	0.918	0.799	0.704	0.695	0.414	0.874	0.952	–	0.883	0.748
HCC-44	0.904	0.915	1.09	1.01	0.758	0.943	0.93	0.666	0.792	0.718	0.701	0.646	0.672	0.678	0.666	1.07	0.936	0.668	0.955	0.888
HCC-78	0.675	0.457	0.586	0.487	0.623	0.802	0.797	0.756	0.841	0.818	0.704	0.524	0.479	0.499	0.518	0.577	0.876	0.699	0.627	0.847
LCLC-103H	0.932	1.13	1.09	1.02	1.18	–	–	–	–	–	1.02	1.15	1.15	1.07	1.04	–	–	–	–	–
LK-2	–	–	–	–	–	0.763	0.888	0.975	0.762	1.11	0.694	0.458	0.437	0.527	0.235	1.04	1.15	1	0.829	1.3
NCI-H358	–	–	–	–	–	–	–	–	–	–	0.644	0.622	0.66	0.582	0.398	0.41	0.436	0.482	0.703	0.785
NCI-H441	0.733	0.47	0.973	0.454	0.441	0.452	1.04	0.673	0.723	0.529	0.64	0.494	0.549	0.425	0.396	–	–	–	–	–
NCI-H650	1.2	1.05	1.32	0.744	1.02	–	–	–	–	–	1.09	0.911	1.25	0.952	0.78	0.83	0.907	1.13	0.801	0.667
NCI-H661	0.823	0.805	0.684	0.699	0.562	–	–	–	–	–	0.474	0.523	0.49	0.517	0.443	0.474	0.45	0.632	0.354	0.463
NCI-H1395	–	–	–	–	–	–	1.09	1.31	1.45	1.02	1.21	1.18	1.23	1.07	1.05	–	0.98	0.992	1.14	0.977
NCI-H1563	0.898	0.856	0.894	0.855	0.95	–	–	–	–	–	1.3	1.18	1.23	1.29	1.29	0.988	0.892	1.12	0.972	0.891
NCI-H1650	0.165	0.203	0.18	0.203	0.214	1.18	1.12	1.07	1.1	1.2	–	–	–	–	–	0.746	0.643	0.673	0.731	0.708
NCI-H1793	–	–	–	–	–	0.393	0.482	0.38	0.436	0.404	1.32	1.11	1.09	0.687	0.602	0.807	0.659	0.802	0.925	1.1
NCI-H1944	–	–	–	–	–	1.06	1.1	–	1.07	0.973	1.21	1.14	0.987	0.876	0.703	0.857	0.704	–	0.89	0.598
NCI-H2170	–	–	–	–	–	0.575	0.584	0.572	0.605	0.695	–	–	–	–	–	0.276	0.262	0.246	0.281	0.316
SK-MES-1	–	–	–	–	–	1.43	1.25	1.21	1.45	1.37	0.98	1.06	0.939	1.03	0.637	0.475	0.432	0.498	0.457	0.45
